Laboratory results published in patent US6395308B1, “Purified extract from Harpagophytum procumbens and/or Harpagophytum zeyheri dence” (Finzekberg GmbH & Co. KG, priority 1996, dated 2002).

Legend:
[1] = stability in artificial intestinal juice; assay type: in vitro ADME; settings: both in pure form and in diluted form
[2] = stability in artificial gastric juice; assay type: in vitro ADME; settings: both in pure form and in diluted form

- stability in artificial intestinal juice [1]: stable for at least two hours
- stability in artificial gastric juice [2]: stable for at least two hours
SMILES: C[C@]1(OC(=O)/C=C/c2ccccc2)C[C@@H](O)[C@]2(O)C=CO[C@@H](O[C@@H]3O[C@H](CO)[C@@H](O)[C@H](O)[C@H]3O)[C@@H]21 [harpagoside]
